Data on nine compounds can be found in patent US20210205260A1, “MP53 RESCUE COMPONDS AND METHODS OF TREATING A P53 DISORDER” (priority 2018, published 2021).

A short description of series [1]: Representative effective dose in humans (Table 16). It is filed as in vivo, human. The conditions noted are these: oral. An excerpt:
The PANDA Agent comprising a three and/or five valence arsenic is generally effective in treating cancer in a human at a wide range of dosages by intravenous injection and oral administration.
The PANDA Agent comprising a three and/or five valence antimony is generally effective in treating cancer in a human at a wide range of dosages by intravenous injection and oral administration. In certain embodiments, the effective dose results in a maximum Sb concentration in the patient's blood (plasma) from about 3.58 mg/L to about 357.5 mg/L, preferably from about 3.58 mg/L to about 179 mg/L, more preferably from about 7.15 mg/L to about 179 mg/L, more preferably from about 7.15 mg/L to about 107 mg/L, more preferably from about 12 mg/L to about 107 mg/L, more preferably from about 32.7 to about 38.8 mg/L. In certain embodiments, the daily dose is from about 20 mg/kg, wherein the maximum Sb concentration is from about 32.7 mg/L to about 38.8 mg/L, and wherein the platform Sb concentration in blood (plasma) is about 3.5 mg/L.
The PANDA Agent comprising a three and/or five valence bismuth is generally effective in treating cancer in a human at a wide range of dosages by intravenous injection and oral administration. In certain embodiments, the effective dose results in a maximum Bi concentration in the patient's blood (plasma) from about 3 mg/L to about 300 mg/L, preferably from about 3 mg/L to about 150 mg/L, more preferably from about 6 mg/L to about 150 mg/L, more preferably from about 6 mg/L to about 90 mg/L, more preferably from about 10 mg/L to about 90 mg/L, more preferably from about […]. In certain embodiments, the daily dose is from about 20 mg/kg, wherein the maximum Bi concentration is from about 32.7 mg/L to about 38.8 mg/L, and wherein the platform Bi concentration in blood (plasma) is about 3.5 mg/L.

A short description of series [2]: Representative effective dose for mouse studies (Table 15). It is filed as in vivo. To be noted: oral. The procedure:
The PANDA Agent comprising a three and/or five valence arsenic is generally effective in treating cancer in a subject, including an animal, at a dose at a wide range of dosages by intravenous injection and oral administration. In certain embodiments, the daily dosage is from about 0.5 mg/kg to about 50 mg/kg, preferably from about 0.5 mg/kg to about 25 mg/kg, more preferably from about 1 mg/kg to about 25 mg/kg, more preferably from about 1 mg/kg to about 15 mg/kg, more preferably from about 1.7 mg/kg to about 15 mg/kg, and more preferably from about 1.7 mg/kg to about 5 mg/kg. In certain embodiments, the dose is about 5 mg/kg. In certain embodiments, the PANDA Agent ATO is administered by intravenous injection or by oral administration at 1 mg/ml concentration, at a dose of 5 mg/kg per day.
In other embodiments, the daily dosage is from about 10 mg/kg to about 1000 mg/kg, preferably from about 10 mg/kg to about 500 mg/kg, more preferably from about 20 mg/kg to about 500 mg/kg, more preferably from about 20 mg/kg to about 300 mg/kg, more preferably from about 33 mg/kg to about 300 mg/kg, and more preferably from about 33 mg/kg to about 100 mg/kg. In certain embodiments, the dose is about 100 mg/kg. In certain embodiments, the PANDA Agent As2S2, As2S3, As2S5, and As4S4 is administered by oral administration at 15 mg/L concentration, at a dose of 100 mg/kg
(§1) The PANDA Agent comprising a three valence and/or five valence antimony is generally effective in treating cancer in a subject, including an animal, at a dose at a wide range of dosages by intravenous injection and oral administration. In certain embodiments, dosage is from about 60 mg/kg to about 6000 mg/kg, preferably from about 60 mg/kg to about 3000 mg/kg, more preferably from about 120 mg/kg to about 3000 mg/kg, more preferably from about 120 mg/kg to about 1500 mg/kg, more preferably from about 150 mg/kg to about 1200 mg/kg, and more preferably from about 300 mg/kg to about 1200 mg/kg. In certain embodiments, the dose is about 600 mg/kg. In certain embodiments, the PANDA Agent is administered by intravenous or oral administration at 100 mg/ml concentration, at a dose of 600 mg/kg per day.
as §1, with “bismuth” for “antimony”, “embodiments, the daily” for “embodiments,”, “In certain embodiments, the dose is about 600 mg/kg. In certain embodiments, the PANDA Agent is administered by intravenous or oral administration at 100 mg/ml concentration, at a dose of 600 mg/kg per day.” left out

The next series concerns APL patients. To be noted: orally administrated; cited from earlier work.
In another series the test system is p53. The series can be described thus: Inductively coupled plasma mass spectroscopy (ICP-MS), arsenic per p53. It is filed as binding. An excerpt: We further discovered that elemental arsenic, elemental bismuth, elemental antimony, and compounds containing elemental arsenic, bismuth, and/or antimony are good rescue compounds for mp53. […] The arsenic-, bismuth-, and antimony-mediated mp53 rescue is achieved by binding of the released arsenic, bismuth, and antimony to mp53. […] The arsenic-, bismuth-, and antimony-mediated mp53 rescue also elevates mp53 Tm. […] Moreover, these rescue compounds can also rescue one or more mp53s.

The test system of series [3] is mp53. Kind of series: Functional rescuability of indicated mp53s (Luciferase, qPCR and/or Western blot). It is filed as cell-based, human. The conditions noted are these: for Func. Res: Table 9, functionally rescuable by PANDA Agent ATO, label = mp53; for Func. Res. (whether the mp53 is functionally rescuable): Table 8, label = mp53 mutation, rescue agent ATO. As for the experimental part:
(§2) For p53 folding assay, H1299 cells transfected with indicated TP53 were treated with 1 μg/ml ATO for 2 hr, and cells were lysed followed by immunoprecipitation using PAb1620. Immunoprecipitated p53 was immunoblotted. Experiments are repeated twice. For p53 transcriptional activity assay, H1299 cells were co-transfected with indicated TP53 and PUMA reporter for 24 hr, followed by treatment of 1 μg/ml ATO for 24 hr. […] X-axis: PAb1620 IP efficiency; Y-axis: PUMA luciferase report signal. Hollow cycles: without ATO treatment; solid cycles: with ATO treatment.
Cells were plated at a concentration of 2×10^4 cells/well in 24-well plates, followed by transfection of luciferase reporter plasmids for 24 hr. All transfection contained 300 ng p53 expressing plasmid, 100 ng of luciferase reporter plasmid and 5 ng of renilla plasmid per well. After agent treatment, cells were lysed in luciferase reporter assay buffer and determined using a luciferase assay kit (Promega). Activities of luciferase were divided by that of renilla to normalize the transfection efficiency.
Total RNA was isolated from cells using Total RNA Purification Kit (B518651, Sangon Biotech). 1 μg total RNA was reverse-transcribed using the GoScript®™ Reverse Transcriptase System (A5001, Promega) following manufacturer's protocol. PCR was performed in triplicate using SYBR green mix (Applied Biosystems), and a ViiA™ 7 Real-Time PCR System (Applied Biosystems) under the following conditions: 10 min at 95° C. followed by 40 cycles of 95° C. for 15 s and 60° C. for 1 min. Specificity of the PCR product was checked for each primer set and samples from the melting curve analysis. Expression levels of targeted genes were normalized relative to levels of β-actin adopting comparative Ct method. The primer sequences are as follows: MDM2 forward 5′-[…]-3′, reverse 5′-[…]-3′; PIG3 forward 5′-[…]-3′, reverse 5′-[…]-3′; PUMA forward 5′-[…]-3′, reverse 5′-[…]-3′; p21 forward 5′-[…]-3′, reverse 5′-[…]-3′; Bax forward 5′-[…]-3′, reverse 5′-[…]-3′; #-actin forward 5′-[…]-3′, reverse 5′-[…]-3′.

In series [4] the test system is mp53. Kind of series: PAb1620 immunoprecipitation, structural rescuability of indicated mp53s (with/without ATO). It is filed as cell-based, human. To be noted: for Str. Res: Table 9, structurally rescuable by PANDA Agent ATO, label = mp53; for 1620 TP (PAb1620 immunoprecipitation efficiency): presence vs absence of ATO, cell line not indicated in this part of Table 9; for Str. Res. (whether the mp53 is structurally rescuable): Table 8, label = mp53 mutation, rescue agent ATO. The procedure: as §2
NP40 buffer at room temperature.

In series [5] the test system is mp53. The series can be described thus: mp53 rescue profile (either structurally or functionally rescuable). It is filed as cell-based, human. The conditions noted are these: Table 8; label = mp53 mutation; rescue agent ATO.
Where [6] appears, read: presence vs absence of ATO, cell line not indicated.

Consider `S=[As][As]=S` (centres unmarked) [As2S2], for which, in series [1], the “Maximun Metal concentration in blood (plasma)” value lay within 0.57 to 1.31 mg/L, the “Platform Metal concentration in blood (plasma)” value lay within 0.03 to 0.07 mg/L and the “Representative effective dose: Dose per day” value was found to be 2.80 mg/kg. The “Representative effective dose: Dose per day” value in series [2] is recorded as 100 mg/kg.
The like results for `S=[As]S[As]=S` (centres unmarked) [As2S3] were, in that order, 0.57 to 1.31 mg/L, 0.03-0.07 L mg/L, 3.20 mg/kg and 100 mg/kg.
For `S=[As](=S)S[As](=S)=S` [As2S5], the “Representative effective dose: Dose per day” value in series [1] came to 4.05 mg/kg; in series [2] it was 100 mg/kg.
Take `S1[As]2S[As]3S[As]2S[As]13` [As4S4, reference compound]: in series [1], the “Maximun Metal concentration in blood (plasma)” value lay within 0.57 to 1.31 mg/L, the “Platform Metal concentration in blood (plasma)” value fell in the range of 0.03 to 0.07 mg/L and the “Representative effective dose: Dose per day” value amounted to 2.80 mg/kg. Also, in series [2], the “Representative effective dose: Dose per day” value came out at 100 mg/kg. The “efficacy in treating APL patients (in words)” value with APL patients is listed as “as effective as conventional intravenous ATO”.
As for `[AsH3]` [arsenic], the “arsenic bound per p53 (ICP-MS)” value in the series on p53 was determined as 0.93±0.19 arsenic per p53.
For D281H, the “Func. Res” value with mp53 [3] was “Yes (the PANDA Agent can rescue one or more of the mp53's wild type function to a 1.5 fold or more, as measured by luciferase assay, qPCR, or Western blot)”. Also, the “Luciferase Assay PUMA” value in the series with mp53 [3] (setting [6]) stood at 2.2 fold. Besides, in the series with mp53 [4], the “Str. Res” value was “Yes (can be rescured by the PANDA Agent ATO, as measured to a 1.5 fold or more increase in PAb1620 immunoprecipitation signal)” and the “1620 TP (PAb1620 immunoprecipitation efficiency)” value (shortened to “1620 TP”) was determined as 2.1 fold.
As to H179P, the “Res. (either structurally or functionally rescuable)” value in the series with mp53 [5] is reported as “Yes”. Also, the “Func. Res. (whether the mp53 is functionally rescuable)” value in the series with mp53 [3] is “Yes”. Besides, the “Str. Res. (whether the mp53 is structurally rescuable)” value in the series on mp53 [4] is on record as “Yes”.
With H179R, in the series with mp53 [3], the “Func. Res” value is given as “Yes (the PANDA Agent can rescue one or more of the mp53's wild type function to a 1.5 fold or more, as measured by luciferase assay, qPCR, or Western blot)”. In the series on mp53 [3] (setting [6]), the “Luciferase Assay CDKNIA” value is given as 1.0 fold and the “Luciferase Assay PUMA” value came to 1.8 fold. Also, in the series with mp53 [4], the “Str. Res” value is given as “Yes (can be rescured by the PANDA Agent ATO, as measured to a 1.5 fold or more increase in PAb1620 immunoprecipitation signal)” and the “1620 TP” value amounted to 4.6 fold.
Take R283H: in the series on mp53 [5], the “Res. (either structurally or functionally rescuable)” value was “Yes”. In addition, in the series on mp53 [3], the “Func. Res. (whether the mp53 is functionally rescuable)” value is “Yes” and the “Func. Res” value was “Yes (the PANDA Agent can rescue one or more of the mp53's wild type function to a 1.5 fold or more, as measured by luciferase assay, qPCR, or Western blot)”. Besides, the “Luciferase Assay PUMA” value with mp53 [3] (setting [6]) stood at 1.6 fold. For the same compound, in the series on mp53 [4], the “Str. Res. (whether the mp53 is structurally rescuable)” value is “Yes”; the “Str. Res” value is listed as “Yes (can be rescured by the PANDA Agent ATO, as measured to a 1.5 fold or more increase in PAb1620 immunoprecipitation signal)”; the “1620 TP” value is listed as 1.6 fold.
